Usually Km stands for the substrate concentration at which the rate is half of its maximum.

In data set [1] the test system is insect larvae. The following applies: present in paper made from trees of the genus Abies; cited from earlier work.
The test system of data set [2] is partially purified inducible sesquiterpene synthases. Put plainly: Sesquiterpene synthase assay with partially purified extract of wounded grand fir stems. The following applies: partially purified inducible sesquiterpene synthases from wounded stems; read-out: Km value for [1-3H]farnesyl diphosphate. The format is biochemical, Abies grandis. The text has this:
Grand fir saplings in active growth were used as the enzyme source for determination of constitutive terpenoid synthases and of terpenoid synthases which had been induced in wounded stems by a standard wounding protocol (Funk, C., et al., (1994) Plant Physiol. 106, 999-1005). Stems from control saplings and saplings eight days after wounding (usually ten saplings) were harvested by removing the top and lateral growth, and cutting at about 5 cm from the base. The stems were chopped into 5-7 cm segments, frozen in liquid N2 and, following removal of any needles, were ground to a powder in a liquid N2-chilled No. 1 Wiley mill. The frozen powder was added to chilled extraction buffer (5 ml/g fresh tissue weight) consisting of 10 mM dibasic potassium phosphate and 1.8 mM monobasic potassium phosphate (pH 7.3), 140 mM NaCl, 20 mM β-mercaptoethanol, 10 mM MgCl2, 5 mM MnCl2, 10% (v/v) glycerol and 1% (w/v) each of polyvinylpyrrolidone (Mr 40,000) and polyvinylpolypyrrolidone. […]
Liquid scintillation counting was performed in 10 ml toluene:ethanol (7:3, v/v) containing 0.4% (w/v) Omnifluor (DuPont-NEN) at a ^3H counting efficiency of 43%. Protein concentrations were determined by the method of Bradford (Bradford, M. M. (1976) Anal. Biochem. 72, 248-254) using the Bio-Rad reagent and bovine serum albumin as standard. […]

Substrate in data set [3]: CC(C)=CCC/C(C)=C/CC/C(C)=C/CO[P@@](=O)(O)OP(=O)(O)O
Put plainly: Kinetic parameters, metal ion requirement and substrate specificity of recombinant δ-selinene synthase. The format is biochemical, Abies grandis. The note with it: other: δ-selinene synthase; estimated; 31.0 °C. Here is the method: The assay for recombinant sesquiterpene synthase (cyclase) activity was performed in 1 ml of buffer (extraction buffer without MnCl2 or the polymeric adsorbents) containing 3.5 μM [1-^3H]farnesyl diphosphate and the total protein extracted from a 5 ml bacterial culture to produce 10^5-10^6 dpm of product in 2 h at 31° C. The incubation mixture was overlaid with 1 ml pentane to trap volatile products. After incubation, the reaction mixture was extracted with pentane (3×1 ml) and the combined extract was passed through a MgSO4-silica gel column to provide the terpene hydrocarbon fractions as before. The columns were subsequently eluted with 3×1 ml of ether to collect any oxygenated products, and an aliquot of each fraction was taken for liquid scintillation counting to determine conversion rate. […]
Substrate specificity of δ-selinene synthase (SEQ ID No:20) and γ-humulene synthase (SEQ ID No:24) was evaluated by comparing farnesyl diphosphate (C15) to geranyl diphosphate (C10) and geranylgeranyl diphosphate (C20) at saturation as precursors of the respective terpene olefins. […] The identities of the monoterpene products produced by the sesquiterpene synthases were determined by GLC-MS and are set forth in FIG. 4.

Take `COC(=O)C1=CC[C@H]([C@H](C)CC(=O)CC(C)C)CC1` [Juvabione]: in data set [1], the “effect on maturation of insect larvae” value is on record as “inhibits maturation of insect larvae”.

In the case of `CC(C)=CCC/C(C)=C/CC/C(C)=C/CO[P@@](=O)(O)OP(=O)(O)O` [[1-^3H]farnesyl diphosphate], the Km in data set [2] was about 0.4 µM.

B1: δ-selinene synthase (SEQ ID No:20) (Abies grandis) (protein)
chain: MAEISESSIPRRTGNHHGNVWDDDLIHSLNSPYGAPAYYELLQKLIQEIKHLLLTEMEMDDGDHDLIKRLQIVDTLECLGIDRHFEHEIQTAALDYVYRWWNEKGIGEGSRDSFSKDLNATALGFRALRLHRYNVSSGVLKNFKDENGKFFCNFTGEEGRGDKQVRSMLSLLRASEISFPGEKVMEEAKAFTREYLNQVLAGHGDVTDVDQSLLREVKYALEFPWHCSVPRWEARSFLEIYGHNHSWLKSNINQKMLKLAKLDFNILQCKHHKEIQFITRWWRDSGISQLNFYRKRHVEYYSWVVMCIFEPEFSESRIAFAKTAILCTVLDDLYDTHATLHEIKIMTEGVRRWDLSLTDDLPDYIKIAFQFFFNTVNELIVEIVKRQGRDMTTIVKDCWKRYIESYLQEAEWIATGHIPTFNEYIKNGMASSGMCILNLNPLLLLDKLLPDNILEQIHSPSKILDLLELTGRIADDLKDFEDEKERGEMASSLQCYMKENPESTVENALNHIKGILNRSLEEFNWEFMKQDSVPMCCKKFTFNIGRGLQFIYKYRDGLYISDKEVKDQIFKILVHQVPMEE
notes: made in house; host or cells: E. coli XL1-Blue/pGAG4 or E. coli BL21(DE3)/pSBAG4
Consider B1, for which the Km in data set [3] was 1.5 µM.

These data come from US6451576B1, “Sesquiterpene synthases from grand fir (Abies grandis), and methods of use” (Washington State University Research Foundation, priority 1998, dated 2002).
